How the values were obtained:
[1] = Stressed stability of crystalline tezacaftor form B, polymorphic stability by XRPD; format: physicochemical; conditions: 4 weeks
Text: (§1) Unless otherwise indicated, in the context of the present invention a range of values indicated for a certain parameter, for example the weight of a component in a mixture, includes the upper and the lower limits of the range, e.g. if the content in weight, or in volume, of a component A in a mixture is indicated as “X to Y”, the content of A can be X, Y or any of the intermediate values. By “polymorphically stable” it is meant that the crystalline form B and the amorphous form of the present invention, when stored (I) at 70° C. under reduced pressure for at least 1 hour (preferably for 5 hours, more preferably for 10 hours, even more preferably for 12 hours), (II) at 60° C. for at least 1 day (preferably for 5 days, more preferably for 10 days, even more preferably for 15 days), (III) at 40° C. and 75% RH for at least 1 day (preferably for 5 days, more preferably for 10 days, even more preferably for 15 days), and/or (IV) at 25-30° C. and 80% RH for at least 1 day (preferably for 5 days, more preferably for 10 days, even more preferably for 15 days), show no signs of transformation into a different crystalline tezacaftor (e.g. Form A) as evaluated by the absence of peaks in an X-ray powder diffractogram (XRPD).
XRPD analyses were performed at 20-30° C. by means of a theta/theta vertical scan Bruker AXS D8 Advance high-performance diffractometer. The instrument was equipped with a Cu-Kα X-ray tube operating at 40 kV/40 mA and generating radiation having λ=1.5418 Å. The detector was a linear Lynxeye XE-T position sensitive set at 250 mm from the sample. Powder samples were deposited in the 20 mm×0.5 mm hollow of the sample holder, consisting of a quartz monocrystal zero background plate. A mild grinding of the sample in an agate mortar may be needed to obtain a suitable fine powder. Diffraction data were collected applying the following conditions: angular range 2-40° 2-theta, 0.02°/step scan and 1 second acquisition time. The instrument calibration was verified by means of a NIST SRM 1976b. […]

[2] = Stability of amorphous tezacaftor, polymorphic stability by XRPD; format: physicochemical
Text: as §1
XRPD analyses were performed at 20-30° C. by means of a theta/theta vertical scan Bruker AXS D8 Advance high-performance diffractometer. The instrument was equipped with a Cu-Kα X-ray tube operating at 40 kV/40 mA and generating radiation having λ=1.5418 Å. The detector was a linear Lynxeye XE-T position sensitive set at 250 mm from the sample. Powder samples were deposited in the 20 mm×0.5 mm hollow of the sample holder, consisting of a quartz monocrystal zero background plate. A mild grinding of the sample in an agate mortar may be needed to obtain a suitable fine powder. Diffraction data were collected applying the following conditions: angular range 2-40° 2-theta, 0.02°/step scan and 1 second acquisition time. The instrument calibration was verified by means of a NIST SRM 1976b. Data acquisition was performed by means of Bruker Diffraction Measurement Center software. Data elaboration was performed by means of Crystal Impact Match!.
The amorphous tezacaftor, prepared as described in Examples 3 to 5, was maintained at 70° C. under a reduced pressure for 12 hours.
The amorphous tezacaftor, prepared as described in Examples 3 to 5, was maintained, in a closed vial, at 60° C. for 15 days.
The amorphous tezacaftor, prepared as described in Examples 3 to 5, was maintained, in an open vial, at 40° C. and 75% RH for 15 days.
The amorphous tezacaftor, prepared as described in Examples 3 to 5, was maintained, in an open vial, at 25-30° C. and 80% RH for 15 days.

Structure (SMILES) | XRPD analysis after storage (polymorphic stability) ([1]; 20-25° C., 80% relative humidity, open vial) | XRPD analysis after storage (polymorphic stability) ([1]; 40° C. and 75% RH, open vial) | XRPD analysis after storage (polymorphic stability) ([1]; 60° C., closed vial) | XRPD analysis after storage (polymorphic stability) ([2]; 25-30° C. and 80% RH, open vial, 15 days) | XRPD analysis after storage (polymorphic stability) ([2]; 40° C. and 75% RH, open vial, 15 days) | XRPD analysis after storage (polymorphic stability) ([2]; 60° C., closed vial, 15 days) | XRPD analysis after storage (polymorphic stability) ([2]; 70° C. under reduced pressure, 12 hours)
CC(C)(CO)c1cc2cc(NC(=O)C3(c4ccc5c(c4)OC(F)(F)O5)CC3)c(F)cc2n1C[C@@H](O)CO [crystalline tezacaftor, (R)-1-(2,2-difluorobenzo[d][1,3]dioxol-5-yl)-N-(1-(2,3-dihydroxypropyl)-6-fluoro-2-(1-hydroxy-2-methylpropan-2-yl)-1H-indol-5-yl)cyclopropane-1-carboxamide] | XRPD diffractogram corresponding to the one obtained in example 1 | XRPD diffractogram corresponding to that obtained in example 1 | XRPD diffractogram corresponded to that obtained from the sample of example 1 |  |  |  | 
CC(C)(CO)c1cc2cc(NC(=O)C3(c4ccc5c(c4)OC(F)(F)O5)CC3)c(F)cc2n1C[C@@H](O)CO [amorphous tezacaftor, (R)-1-(2,2-difluorobenzo[d][1,3]dioxol-5-yl)-N-(1-(2,3-dihydroxypropyl)-6-fluoro-2-(1-hydroxy-2-methylpropan-2-yl)-1H-indol-5-yl)cyclopropane-1-carboxamide] |  |  |  | XRPD spectrum corresponding to the one obtained in example 3 | XRPD spectrum corresponding to the one obtained in example 3 | XRPD spectrum corresponding to the one obtained in example 3 | XRPD spectrum corresponding to the one obtained in example 3
